Data: article PMC4063695, “Design of Embedded-Hybrid Antimicrobial Peptides with Enhanced Cell Selectivity and Anti-Biofilm Activity” (PLoS ONE, 2014)
Where two headings read alike, the source gives them in different places. No end group written: not given here.

Assays:
[1] = tested on: B. subtilis CMCC63501
Excerpt: (§1) E. coli ATCC25922, P. aeruginosa ATCC27853, S. aureus ATCC29213, S. epidermidis ATCC12228, S. faecalis ATCC29212 and B. subtilis CMCC63501 were obtained from the College of Veterinary Medicine, Northeast Agricultural University (Harbin, China), E. coli K88, E. coli CVCC1515 and P. aeruginosa ATCC15442 were bestowed by Prof. J.H. Wang (Gene Engineering Laboratory, Feed Research Institute, Chinese Academy of Agricultural Sciences Beijing, China) and E. coli UB1005 was kindly provided by Prof. Q.S. Qi (State Key Laboratory of Microbial Technology, Shandong University, China). […] Briefly, 50 µl of approximate 0.5–1 × 10^6 colony forming units (CFU)/ml of cells were diluted in Mueller-Hinton broth and distributed to 96-well plate, 50 µl of twofold peptides were added and the plates was incubated at 37°C for 18–24 h. The MIC values were calculated as the lowest peptide concentration that prevented visible turbidity and negative control of the pure broth without microbes. The tests were performed at least three times in duplicate.

[2] = tested on: E. coli ATCC25922
Excerpt: as §1

[3] = tested on: E. coli CVCC1515
Excerpt: as §1

[4] = tested on: E. coli K88; conditions: MHB, 37°C, 18-24 h, at least three times in duplicate
Excerpt: as §1

[5] = tested on: E. coli UB1005
Excerpt: as §1

[6] = tested on: P. aeruginosa ATCC15442
Excerpt: as §1

[7] = tested on: P. aeruginosa ATCC27853
Excerpt: as §1

[8] = tested on: P. aeruginosa variant 1; conditions: P. aeruginosa variant 1, obtained by step-wise culture with ciprofloxacin hydrochloride; MHB, 37°C, 18-24 h
Excerpt: as §1

[9] = tested on: P. aeruginosa variant 2; conditions: P. aeruginosa variant 2, obtained by step-wise culture with gentamicin; MHB, 37°C, 18-24 h
Excerpt: as §1

[10] = tested on: S. pullorum C79-13
Excerpt: as §1

[11] = tested on: S. typhimurium ATCC14028
Excerpt: as §1

[12] = tested on: S.aureus ATCC29213
Excerpt: as §1

[13] = tested on: S.epidermidis ATCC12228
Excerpt: as §1

[14] = tested on: S.faecalis ATCC29212
Excerpt: as §1

[15] = tested on: Gram-negative and Gram-positive strains; assay: MIC over all tested strains (range, geometric mean); format: cell-based; design: GM (geometric mean of MIC values from all microbial strains): unit not given here; conditions: for GM (geometric mean of MIC values from all microbial strains): all strains of Table 2
Excerpt: as §1

[16] = tested on: human red blood cells (hRBC); assay: Hemolytic activity; format: cell-based
Procedure: The amount of released hemoglobin by the lysis of erythrocytes was measured for hemolytic activity of peptides. Human erythrocytes were obtained from a healthy donor with written informed consent. The experimental protocol was reviewed and approved by the ethics committee of the Northeast Agricultural University Hospital. The measurement was based on a previously described method. The fresh hRBCs were washed three times by centrifugation (1000 g, 5 min, 4°C) in PBS (pH 7.4), and then resuspended in PBS to obtain the erythrocyte with a dilution of approximately 1% (v/v). Then, 50 µL of hRBCs solution was incubated with 50 µL of different concentrations of the peptides dissolved in PBS for 1 h at 37°C, before centrifugation (1000 g, 5 min, 4°C) again. The absorbance of the supernatants was measured at optical density (OD) 492 nm. […] The control samples for 0% and 100% hemolysis consisted of hRBCs in PBS (Ablank) only and in 0.1% Triton X-100 (Atriton), respectively. The percentage of hemolysis was calculated according to the following equation: [drawing 3]

[17] = Circular dichroism, secondary structure; format: physicochemical; conditions: 30 mM SDS micelles; 150 µM peptide
Procedure: The CD spectra were measured with a CD spectropolarimeter (Jasco, J-820, Tokyo, Japan) at 25°C, using a 0.1 cm path length rectangular quartz cell. The spectra were recorded at between 190 and 250 nm at 10 nm/min scanning speed. At least three scans were conducted for each peptide sample.
The acquired CD spectra were converted to the mean residue ellipticity through the following equation: [drawing 1]
where θM is the mean residue ellipticity [deg.cm2.dmol-1], θobs is the observed ellipticity corrected for the buffer at a given wavelength [mdeg], c is the peptide concentration [mM], l is the path length [mm], and n is the number of amino acids.
The percentage of α-helical structure was calculated as followings: [drawing 2]
where [θ]222 is the experimentally observed mean residue ellipticity at 222 nm, and values for [θ]^0 and [θ]^100 which correspond to 0 and 100% a-helix content at 222 nm, are estimated to be −2000 and −32000, respectively, [29].

[18] = B. subtilis CMCC63501, MHB, 37°C, 18-24 h, at least three times in duplicate
[19] = E. coli ATCC25922, MHB, 37°C, 18-24 h, at least three times in duplicate
[20] = E. coli CVCC1515, MHB, 37°C, 18-24 h, at least three times in duplicate
[21] = E. coli UB1005, MHB, 37°C, 18-24 h, at least three times in duplicate
[22] = P. aeruginosa ATCC15442, MHB, 37°C, 18-24 h, at least three times in duplicate
[23] = P. aeruginosa ATCC27853, MHB, 37°C, 18-24 h, at least three times in duplicate
[24] = S. pullorum C79-13, MHB, 37°C, 18-24 h, at least three times in duplicate
[25] = S. typhimurium ATCC14028, MHB, 37°C, 18-24 h, at least three times in duplicate
[26] = S.aureus ATCC29213, MHB, 37°C, 18-24 h, at least three times in duplicate
[27] = S.epidermidis ATCC12228, MHB, 37°C, 18-24 h, at least three times in duplicate
[28] = S.faecalis ATCC29212, MHB, 37°C, 18-24 h, at least three times in duplicate
[29] = minimum concentration that caused 5% hemolysis of hRBC (footnote), 1% hRBC in PBS pH 7.4, 1 h, 37°C, OD 492 nm

Substance	MIC [4] [µM]	MIC [8] [µM]	MIC [9] [µM]	GM (geometric mean of MIC values from all microbial strains) [15]	MIC [1, 18] [µM]	MIC [2, 19] [µM]	MIC [3, 20] [µM]	MIC [5, 21] [µM]	MIC [6, 22] [µM]	MIC [7, 23] [µM]	MIC [10, 24] [µM]	MIC [11, 25] [µM]	MIC [12, 26] [µM]	MIC [13, 27] [µM]	MIC [14, 28] [µM]	MHC [16, 29] [µM]	other results
FRIRVRV-NH2 [FV7, reference compound]	16	8	16	29													MIC ([1]; CMCC63501): 16 µM; MIC ([2]; ATCC25922): 16 µM; MIC ([3]; CVCC1515): 32 µM; MIC ([5]; UB1005): 32 µM; MIC ([6]; ATCC15442): 16 µM; MIC ([7]; ATCC27853): 16 µM; MIC ([10]; C79-13): 128 µM; MIC ([11]; ATCC14028): 16 µM; MIC ([12]; ATCC29213): 64 µM; MIC ([13]; ATCC12228): 32 µM; MIC ([14]; ATCC29212): 32 µM; MHC ([16]; pH 7.4): >256 µM; secondary structure (in words) [17]: β-sheet
RFRRLRKKTRKRLKKI-NH2 [RI16]	>256	>256	>256		64	128	128	128	>256	128	64	64	128	32	128	>256	
RKKTRKR-NH2 [RR7]	>256	>256	>256	256	>256	>256	>256	>256	>256	>256	>256	>256	>256	>256	>256	>256	antimicrobial activity (in words) ([15]; Gram-negative and Gram-positive strains): poor antimicrobial activity
